Data from patent publication US9951049B2, “Pyrazole linked benzimidazole conjugates and a process for preparation thereof” (Council of Scientific & Industrial Reseach, priority 2014, dated 2018).
Entries after “also recorded” stand apart in the source; their conditions may differ. Like-named read-outs stand apart in the source and are kept apart here.

Columns and labels:
HL-60(TB) = assay: NCI SRB screen, HL-60(TB); format: cell-based; conditions: Homo sapiens, Leukemia, 48 h
SR = assay: NCI SRB screen, SR; conditions: Homo sapiens, 48 h, read-out: GI50 values
M14 = assay: NCI SRB screen, M14; conditions: Homo sapiens, M14, 48 h, read-out: GI50 values
KM12 = assay: NCI SRB screen, KM12; conditions: Homo sapiens, KM12, 48 h, read-out: GI50 values
ACHN = assay: NCI SRB screen, ACHN; conditions: Homo sapiens, 48 h, read-out: GI50 values
T-47D = assay: NCI SRB screen, T-47D; conditions: Homo sapiens, T47D, 48 h, read-out: GI50 values
MOLT-4 = assay: NCI SRB screen, MOLT-4; conditions: Homo sapiens, MOLT-4, 48 h, read-out: GI50 values
HOP-62 = assay: NCI SRB screen, HOP-62; conditions: Homo sapiens, HOP-62, 48 h, read-out: GI50 values
SF-268 = assay: NCI SRB screen, SF-268; conditions: Homo sapiens, SF-268, 48 h, read-out: GI50 values
SF-295 = assay: NCI SRB screen, SF-295; conditions: Homo sapiens, SF-295, 48 h, read-out: GI50 values
SF-539 = assay: NCI SRB screen, SF-539; conditions: Homo sapiens, 48 h, read-out: GI50 values
SNB-19 = assay: NCI SRB screen, SNB-19; conditions: Homo sapiens, SNB-19, 48 h, read-out: GI50 values
SNB-75 = assay: NCI SRB screen, SNB-75; conditions: Homo sapiens, SNB-75, 48 h, read-out: GI50 values
IGROV1 = assay: NCI SRB screen, IGROV1; conditions: Homo sapiens, IGROV-1, 48 h, read-out: GI50 values
BT-549 = assay: NCI SRB screen, BT-549; conditions: Homo sapiens, BT-549, 48 h, read-out: GI50 values
UACC-62 = assay: NCI SRB screen, UACC-62; conditions: Homo sapiens, UACC-62, 48 h, read-out: GI50 values
OVCAR-3 = assay: NCI SRB screen, OVCAR-3; conditions: Homo sapiens, OVCAR-3, 48 h, read-out: GI50 values
OVCAR-5 = assay: NCI SRB screen, OVCAR-5; conditions: Homo sapiens, OVCAR-5, 48 h, read-out: GI50 values
SK-OV-3 = assay: NCI SRB screen, SK-OV-3; conditions: Homo sapiens, SK-OV-3, 48 h, read-out: GI50 values
RXF 393 = assay: NCI SRB screen, RXF 393; conditions: Homo sapiens, RXF 393, 48 h, read-out: GI50 values
HS 578T = assay: NCI SRB screen, HS 578T; conditions: Homo sapiens, 48 h, read-out: GI50 values
CCRF-CEM = assay: NCI SRB screen, CCRF-CEM; conditions: Homo sapiens, 48 h, read-out: GI50 values
NCI-H226 = assay: NCI SRB screen, NCI-H226; conditions: Homo sapiens, NCI-H226, 48 h, read-out: GI50 values
NCI-H460 = assay: NCI SRB screen, NCI-H460; conditions: Homo sapiens, NCI-H460, 48 h, read-out: GI50 values
NCI-H522 = assay: NCI SRB screen, NCI-H522
MALME-3M = assay: NCI SRB screen, MALME-3M; conditions: Homo sapiens, 48 h, read-out: GI50 values
RPMI-8226 = assay: NCI SRB screen, RPMI-8226; conditions: Homo sapiens, RPMI-8226, 48 h, read-out: GI50 values
CNS cancer cell lines = assay: NCI SRB screen, CNS panel average; conditions: Homo sapiens, 48 h, read-out: Log10 GI50 (converted)
Renal cancer cell lines = assay: NCI SRB screen, Renal panel average; conditions: Homo sapiens, 48 h, read-out: Log10 GI50 (converted)
[1] = tested on: Ovarian cancer cell lines; assay: NCI SRB screen, Ovarian panel average; conditions: Homo sapiens, 48 h, read-out: Log10 GI50 (converted)
Leukemia cell lines = assay: NCI SRB screen, Leukemia panel average; conditions: Homo sapiens, 48 h, read-out: Log10 GI50 (converted)
[2] = tested on: Prostate cancer cell lines; assay: NCI SRB screen, Prostate panel average; conditions: Homo sapiens, 48 h, read-out: Log10 GI50 (converted)
MDA-MB-435 = assay: NCI SRB screen, MDA-MB-435 (Melanoma panel); conditions: Homo sapiens, MDA-MB-435, 48 h, read-out: GI50 values
[3] = tested on: fifty six human tumor cell lines; assay: NCI human tumor cell line screen (48 h, SRB), all cell lines; conditions: for GI50: Homo sapiens; for anticancer activity (in words): human cancer cell lines of the NCI panel; for Log10 TGI mean graph midpoint (MG_MID): human tumor cell lines, mean over the panel, total growth inhibition
[4] = Homo sapiens, NCI-H522, 48 h, read-out: GI50 values, Non-small cell lung, NCI-H522
[5] = read-out: Log10 GI50 mean graph midpoint (MG_MID) (converted)

SMILES	GI50 (HL-60(TB)) [nM]	GI50 (SR) [nM]	GI50 (M14) [nM]	GI50 (KM12) [nM]	GI50 (ACHN) [nM]	GI50 (T-47D) [nM]	GI50 (MOLT-4) [nM]	GI50 (HOP-62) [nM]	GI50 (SF-268) [nM]	GI50 (SF-295) [nM]	GI50 (SF-539) [nM]	GI50 (SNB-19) [nM]	GI50 (SNB-75) [nM]	GI50 (IGROV1) [nM]	GI50 (BT-549) [nM]	GI50 (UACC-62) [nM]	GI50 (OVCAR-3) [nM]	GI50 (OVCAR-5) [nM]	GI50 (SK-OV-3) [nM]	GI50 (RXF 393) [nM]	also measured
COc1cc(-c2cc(-c3nc4ccccc4[nH]3)[nH]n2)cc(OC)c1OC [6f, 2-(3-(3,4,5-trimethoxyphenyl)-1H-pyrazol-5-yl)-1H-benzo[d]imidazole]	2540	3320	2570	3150	2770	1110	2130	3540	6430	3130	5110	1780	2830	2340	1800	1640	4000	1300	3480	1770	GI50 (HS 578T): 6890 nM; GI50 (CCRF-CEM): 2120 nM; GI50 (NCI-H226): 1140 nM; GI50 (NCI-H460): 3640 nM; GI50 (NCI-H522; [4]): 1840 nM; GI50 (NCI-H522; read-out: GI50 values, Non-small cell lung, NCI-H522, 48 h): 1870 nM; GI50 (MALME-3M): 1950 nM; GI50 (RPMI-8226): 1200 nM; GI50 (CNS cancer cell lines): 5250 nM; GI50 (Renal cancer cell lines): 2630 nM; GI50 [1]: 3240 nM; GI50 (Leukemia cell lines): 2290 nM; GI50 [2]: 2880 nM; GI50 (MDA-MB-435): 2350 nM; GI50 ([3]; read-out: GI50 value range): 340 to 10000 nM; GI50 [3, 5]: 2880 nM; anticancer activity (in words) [3]: significant anticancer activity; also recorded: pronounced activities; Log10 TGI mean graph midpoint (MG_MID) [3]: −4.83
c1ccc2[nH]c(-c3cc(-c4ccc5c(c4)OCO5)n[nH]3)nc2c1 [6g, 2-(3-(benzo[d][1,3]dioxol-5-yl)-1H-pyrazol-5-yl)-1H-benzo[d]imidazole]	2270	3370	2190	1750	4330	3320	2680	8460	4770	3240	2710	5920	1010	3660	2120	3080	3210	1490	4980	2360	GI50 (HS 578T): 3800 nM; GI50 (CCRF-CEM): 2520 nM; GI50 (NCI-H226): 4420 nM; GI50 (NCI-H460): 4570 nM; GI50 (NCI-H522; [4]): 1980 nM; GI50 (MALME-3M): 2330 nM; GI50 (RPMI-8226): 1140 nM; GI50 (CNS cancer cell lines): 4270 nM; GI50 (Renal cancer cell lines): 2040 nM; GI50 [1]: 4370 nM; GI50 (Leukemia cell lines): 2510 nM; GI50 [2]: 5130 nM; GI50 (MDA-MB-435): 3120 nM; GI50 ([3]; read-out: GI50 value range): 340 to 10000 nM; GI50 [3, 5]: 3720 nM; anticancer activity (in words) [3]: significant anticancer activity; also recorded: pronounced activities; Log10 TGI mean graph midpoint (MG_MID) [3]: −4.75
